Source: article PMC11676667, “Pharmacokinetics of Oral Cannabinoid Δ8-Tetrahydrocannabivarin and Its Main Metabolites in Healthy Participants” (Pharmaceuticals, 2024)
Like-named read-outs stand apart in the source and are kept apart here.

Assay: Plasma pharmacokinetics after single oral dose of Δ8-THCV in MCT oil (LC-MS/MS, non-compartmental analysis)
Format: in vivo, human
Design: Clast (last quantifiable concentration): unit not given here
Conditions: for Clast (last quantifiable concentration) / tlast (time to last quantifiable concentration) / concentration at 0.5 h / concentration at 1 h / concentration at 2 h / concentration at 4 h / concentration at 6 h / concentration at 8 h / Tmax / AUC(0-t) / Cmax / MRT: plasma; for plasma concentration: Predose; for concentration at 0.5 h / concentration at 1 h / concentration at 2 h / concentration at 4 h / concentration at 6 h / concentration at 8 h / Tmax / AUC(0-t) / Cmax / MRT: human; for Tmax: read-out: tmax; for MRT: read-out: MRT (mean residence time)
Procedure: The study was a two-phase, dose-ranging, placebo-controlled trial in 21 healthy participants to assess the safety, tolerability, PK, and PD of an oral formulation of Δ8-THCV. A detailed description of the study was published elsewhere. The study product was a medium-chain triglyceride (MCT) oil oral formulation of Δ8-THCV at a concentration of 50 mg/mL. […] MCT oil was used as placebo.
Twenty-one participants were enrolled in the clinical study and plasma samples from 15 participants were sent to our laboratory for pharmacokinetic evaluation. Of these, 3 participants were enrolled in Phase 1, an unblinded, placebo-controlled, single ascending dose design and 12 were enrolled in Phase 2, a double-blind, randomized, placebo-controlled, within-participant crossover design. At each study session, participants received one of the following oral doses: placebo, 12.5 mg, 25 mg, 50 mg, 100 mg, and 200 mg of the aforementioned Δ8-THCV formulation in MCT. Study visits were separated by a washout period of a minimum of one week and maximum of 28 days. Participants entered the research facility the night before the session and received the study product in the morning after a standardized high-fat, high-calorie breakfast. PK blood samples included in this analysis were collected prior to dosing and 0.5, 1, 2, 4, 6, and 8 h after dose. Immediately following collection into K2EDTA tubes, blood samples were placed on wet ice, centrifuged, and plasma was immediately frozen at −80 °C until shipment to the bioanalytical laboratory (iC42 Clinical Research and Development, University of Colorado, Aurora, CO, USA) on dry ice.
Plasma samples were analyzed using a validated high-performance liquid chromatography–tandem mass spectrometry (LC-MS/MS) assay. The assay included Δ8-THCV and its main metabolites 11-OH-Δ8-THCV and Δ8-THCV-COOH, Δ9-THCV and its main metabolite Δ9-THCV-COOH, and Δ9-THC and Δ8-THC as well as their main metabolites (Figure 3). The complete list of analyzed compounds and a summary of the key performance parameters of the assay are presented in Appendix A and Table A1 and Table A2. […] For the PK analysis, concentrations below the lower limit of quantification were set to 0 ng/mL. PK parameters were calculated using non-compartmental analysis (Phoenix WinNonlin version 8.4., Certara, Princeton, NJ, USA). Statistical analysis was carried out using GraphPad Prism (version 10, Boston, MA, USA).

[1] = 12.5 mg single oral Δ8-THCV in MCT oil, Mean (±SD)
[2] = 12.5 mg single oral Δ8-THCV in MCT oil, Median (Range)
[3] = 25 mg single oral Δ8-THCV in MCT oil, Mean (±SD)
[4] = 25 mg single oral Δ8-THCV in MCT oil, Median (Range)
[5] = 50 mg single oral Δ8-THCV in MCT oil, Mean (±SD)
[6] = 50 mg single oral Δ8-THCV in MCT oil, Median (Range)
[7] = 100 mg single oral Δ8-THCV in MCT oil, Mean (±SD)
[8] = 100 mg single oral Δ8-THCV in MCT oil, Median (Range)
[9] = 200 mg single oral Δ8-THCV in MCT oil, Mean (±SD)
[10] = 200 mg single oral Δ8-THCV in MCT oil, Median (Range)
[11] = oral, 12.5 mg, 12.5 mg Δ8-THCV dose, Mean (SD, %CV)
[12] = oral, 12.5 mg, 12.5 mg Δ8-THCV dose, Median (IQ Range)
[13] = oral, 25 mg, 25 mg Δ8-THCV dose, Mean (SD, %CV)
[14] = oral, 25 mg, 25 mg Δ8-THCV dose, Median (IQ Range)
[15] = oral, 50 mg, 50 mg Δ8-THCV dose, Mean (SD, %CV)
[16] = oral, 50 mg, 50 mg Δ8-THCV dose, Median (IQ Range)
[17] = oral, 100 mg, 100 mg Δ8-THCV dose, Mean (SD, %CV)
[18] = oral, 100 mg, 100 mg Δ8-THCV dose, Median (IQ Range)
[19] = oral, 200 mg, 200 mg Δ8-THCV dose, Mean (SD, %CV)
[20] = oral, 200 mg, 200 mg Δ8-THCV dose, Median (IQ Range)
[21] = po, 12.5 mg, 12.5 mg single oral Δ8-THCV in MCT oil, Mean (±SD)
[22] = po, 12.5 mg, 12.5 mg single oral Δ8-THCV in MCT oil, Median (Range)
[23] = po, 25 mg, 25 mg single oral Δ8-THCV in MCT oil, Mean (±SD)
[24] = po, 25 mg, 25 mg single oral Δ8-THCV in MCT oil, Median (Range)
[25] = po, 50 mg, 50 mg single oral Δ8-THCV in MCT oil, Mean (±SD)
[26] = po, 50 mg, 50 mg single oral Δ8-THCV in MCT oil, Median (Range)
[27] = po, 100 mg, 100 mg single oral Δ8-THCV in MCT oil, Mean (±SD)
[28] = po, 100 mg, 100 mg single oral Δ8-THCV in MCT oil, Median (Range)
[29] = po, 200 mg, 200 mg single oral Δ8-THCV in MCT oil, Mean (±SD)
[30] = po, 200 mg, 200 mg single oral Δ8-THCV in MCT oil, Median (Range)

## CCCc1cc(O)c2c(c1)OC(C)(C)[C@@H]1CCC(C(=O)O)=C[C@@H]21 [Δ9-THCV-COOH, 11-nor-9-carboxy-Δ9-THCV]
[1]
  Clast (last quantifiable concentration): 1.9 (±0.8)
  tlast (time to last quantifiable concentration): 6.8 (±1.7)
[2]
  Clast (last quantifiable concentration): 1.7 (1.1–3.3)
  tlast (time to last quantifiable concentration): 8 (4–8)
[3]
  Clast (last quantifiable concentration): 2.6 (±1)
  tlast (time to last quantifiable concentration): 7.6 (±1.2)
[4]
  Clast (last quantifiable concentration): 2.4 (1.3–4.4)
  tlast (time to last quantifiable concentration): 8 (4–8)
[5]
  Clast (last quantifiable concentration): 5.4 (±1.9)
  tlast (time to last quantifiable concentration): 8 (±0)
[6]
  Clast (last quantifiable concentration): 5.2 (2.4–8.5)
  tlast (time to last quantifiable concentration): 8 (8–8)
[7]
  Clast (last quantifiable concentration): 10.8 (±3.7)
  tlast (time to last quantifiable concentration): 8 (±0)
[8]
  Clast (last quantifiable concentration): 10.5 (6.2–16.1)
  tlast (time to last quantifiable concentration): 8 (8–8)
[9]
  Clast (last quantifiable concentration): 29.2 (±16.1)
  tlast (time to last quantifiable concentration): 8 (±0)
[10]
  Clast (last quantifiable concentration): 26.3 (10.9–63.8)
  tlast (time to last quantifiable concentration): 8 (8–8)
12.5 mg Δ8-THCV dose, Mean (SD, %CV)
  plasma concentration: 0 (±0, --) ng/mL
12.5 mg Δ8-THCV dose, Median (IQ Range)
  plasma concentration: 0 (0–0) ng/mL
25 mg Δ8-THCV dose, Mean (SD, %CV)
  plasma concentration: 0 (±0, --) ng/mL
25 mg Δ8-THCV dose, Median (IQ Range)
  plasma concentration: 0 (0–0) ng/mL
50 mg Δ8-THCV dose, Mean (SD, %CV)
  plasma concentration: 0 (±0, --) ng/mL
50 mg Δ8-THCV dose, Median (IQ Range)
  plasma concentration: 0 (0–0) ng/mL
100 mg Δ8-THCV dose, Mean (SD, %CV)
  plasma concentration: 0 (±0, --) ng/mL
100 mg Δ8-THCV dose, Median (IQ Range)
  plasma concentration: 0 (0–0) ng/mL
200 mg Δ8-THCV dose, Mean (SD, %CV)
  plasma concentration: 0 (±0, --) ng/mL
200 mg Δ8-THCV dose, Median (IQ Range)
  plasma concentration: 0 (0–0) ng/mL
[11]
  concentration at 0.5 h: 0 ng/mL
  concentration at 1 h: 0.1 ng/mL
  concentration at 2 h: 0.5 ng/mL
  concentration at 4 h: 1.9 ng/mL
  concentration at 6 h: 1.5 ng/mL
  concentration at 8 h: 1.2 ng/mL
[12]
  concentration at 0.5 h: 0 ng/mL
  concentration at 1 h: 0 ng/mL
  concentration at 2 h: 0 ng/mL
  concentration at 4 h: 1.8 ng/mL
  concentration at 6 h: 1.3 ng/mL
  concentration at 8 h: 1.4 ng/mL
[13]
  concentration at 0.5 h: 0 ng/mL
  concentration at 1 h: 0.7 ng/mL
  concentration at 2 h: 1.6 ng/mL
  concentration at 4 h: 3.7 ng/mL
  concentration at 6 h: 3 ng/mL
  concentration at 8 h: 2.3 ng/mL
[14]
  concentration at 0.5 h: 0 ng/mL
  concentration at 1 h: 0 ng/mL
  concentration at 2 h: 1.7 ng/mL
  concentration at 4 h: 3.6 ng/mL
  concentration at 6 h: 2.4 ng/mL
  concentration at 8 h: 2.3 ng/mL
[15]
  concentration at 0.5 h: 0 ng/mL
  concentration at 1 h: 0.6 ng/mL
  concentration at 2 h: 2.3 ng/mL
  concentration at 4 h: 5.4 ng/mL
  concentration at 6 h: 6.7 ng/mL
  concentration at 8 h: 5.4 ng/mL
[16]
  concentration at 0.5 h: 0 ng/mL
  concentration at 1 h: 0 ng/mL
  concentration at 2 h: 0 ng/mL
  concentration at 4 h: 5 ng/mL
  concentration at 6 h: 5.9 ng/mL
  concentration at 8 h: 5.2 ng/mL
[17]
  concentration at 0.5 h: 0.3 ng/mL
  concentration at 1 h: 5.8 ng/mL
  concentration at 2 h: 9.2 ng/mL
  concentration at 4 h: 16.1 ng/mL
  concentration at 6 h: 15.6 ng/mL
  concentration at 8 h: 10.8 ng/mL
[18]
  concentration at 0.5 h: 0 ng/mL
  concentration at 1 h: 1.9 ng/mL
  concentration at 2 h: 8.7 ng/mL
  concentration at 4 h: 16 ng/mL
  concentration at 6 h: 17.5 ng/mL
  concentration at 8 h: 10.5 ng/mL
[19]
  concentration at 0.5 h: 0.1 ng/mL
  concentration at 1 h: 4.9 ng/mL
  concentration at 2 h: 19.1 ng/mL
  concentration at 4 h: 37.1 ng/mL
  concentration at 6 h: 32.3 ng/mL
  concentration at 8 h: 29.2 ng/mL
[20]
  concentration at 0.5 h: 0 ng/mL
  concentration at 1 h: 2.7 ng/mL
  concentration at 2 h: 9.4 ng/mL
  concentration at 4 h: 40 ng/mL
  concentration at 6 h: 28.5 ng/mL
  concentration at 8 h: 26.3 ng/mL
oral, present study, MCT oil formulation, as compared in discussion
  Tmax: 5 h
[21]
  AUC(0-t): 7.9 ng·h/mL
  Cmax: 2.7 ng/mL
  MRT: 5.1 h
  Tmax: 5.1 h
[22]
  AUC(0-t): 5.6 ng·h/mL
  Cmax: 2.8 ng/mL
  MRT: 5.3 h
  Tmax: 4 h
[23]
  AUC(0-t): 18.3 ng·h/mL
  Cmax: 4.2 ng/mL
  MRT: 4.8 h
  Tmax: 4.6 h
[24]
  AUC(0-t): 19.6 ng·h/mL
  Cmax: 4.4 ng/mL
  MRT: 4.6 h
  Tmax: 4 h
[25]
  AUC(0-t): 33.4 ng·h/mL
  Cmax: 8.8 ng/mL
  MRT: 5.5 h
  Tmax: 5.1 h
[26]
  AUC(0-t): 30.8 ng·h/mL
  Cmax: 7.7 ng/mL
  MRT: 5.5 h
  Tmax: 6 h
[27]
  AUC(0-t): 92.5 ng·h/mL
  Cmax: 22.5 ng/mL
  MRT: 4.9 h
  Tmax: 4.5 h
[28]
  AUC(0-t): 86.5 ng·h/mL
  Cmax: 20.6 ng/mL
  MRT: 4.6 h
  Tmax: 4 h
[29]
  AUC(0-t): 201 ng·h/mL
  Cmax: 50.3 ng/mL
  MRT: 5.1 h
  Tmax: 5.3 h
[30]
  AUC(0-t): 190 ng·h/mL
  Cmax: 48.2 ng/mL
  MRT: 5.2 h
  Tmax: 6 h
Of 504 plasma samples from 15 participants after oral Δ8-THCV
  number of positive plasma samples: 260
One subject after oral Δ8-THCV in MCT oil, Figure A1
  concentration in representative plasma sample: 33.2 ng/mL
